Columns and labels:
[1] = target: human GLP-1R (Homo sapiens, UniProt P43220, G168S); assay: CHO GLP-1R Clone H6 cAMP HTRF agonist assay (Assay 1, high receptor density); type: cell-based; details: for EC50: CHO GLP-1R clone H6, cAMP HTRF, geometric mean; for Emax: CHO GLP-1R clone H6, arithmetic mean, relative to saturating GLP-1 (1 μM), read-out: Assay 1 Emax (%)
Outline: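 From replicate determinations, mean EC50 (geometric) and mean Emax (arithmetic) were derived and expressed to two significant figures.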

[2] = target: human GLP-1R (Homo sapiens, UniProt P43220, L260F); assay: CHO GLP-1R Clone C6 cAMP HTRF agonist assay (Assay 2, low receptor density); type: cell-based; details: for EC50: CHO GLP-1R clone C6, cAMP HTRF, geometric mean; for Emax: CHO GLP-1R clone C6, arithmetic mean, relative to saturating GLP-1 (1 μM)
Text: In Table 5 and Table 6, assay data are presented to two (2) significant figures as the geometric mean (EC50s) and arithmetic mean (Emax) based on the number of replicates listed (Number). A blank cell means there was no data for that Example or the Emax was not calculated.

human GLP-1R (Homo sapiens, UniProt P43220, L260F), sequence (P43220 24-463 L260F): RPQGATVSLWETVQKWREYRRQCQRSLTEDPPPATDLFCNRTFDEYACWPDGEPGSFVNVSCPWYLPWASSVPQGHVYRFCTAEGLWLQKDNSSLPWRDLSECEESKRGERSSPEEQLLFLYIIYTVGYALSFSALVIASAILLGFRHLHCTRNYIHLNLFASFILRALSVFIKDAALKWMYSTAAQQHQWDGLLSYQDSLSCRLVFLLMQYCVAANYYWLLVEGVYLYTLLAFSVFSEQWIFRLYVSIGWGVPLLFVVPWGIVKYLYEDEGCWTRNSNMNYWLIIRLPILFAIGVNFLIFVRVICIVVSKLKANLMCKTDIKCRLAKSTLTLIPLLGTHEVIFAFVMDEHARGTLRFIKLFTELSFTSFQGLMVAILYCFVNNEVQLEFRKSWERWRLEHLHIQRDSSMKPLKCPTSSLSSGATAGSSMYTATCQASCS
human GLP-1R (Homo sapiens, UniProt P43220, G168S), sequence (P43220 24-463 G168S): as the sequence (P43220 24-463 L260F) above, with G145S, F237L counted along it

Structure (SMILES)	EC50 [1] [nM]	Emax [1] [%]	EC50 [2] [nM]	Emax [2] [%]
O=C(O)c1ccc2nc(CN3CCC(c4cccc(OCc5ccc(Cl)cc5F)n4)CC3)n(CCn3cncn3)c2c1 [Compound 292B, 2-[(4-{6-[(4-chloro-2-fluorobenzyl)oxy]pyridin-2-yl}piperidin-1-yl)methyl]-1-[2-(1H-1,2,4-triazol-1-yl)ethyl]-1H-benzimidazole-6-carboxylic acid]	55	71	1700	99
CCOC(C)Cn1c(CN2CCC(c3cccc(OCc4ccc(Cl)cc4F)n3)CC2)nc2ccc(C(=O)O)cc21 (stereo not drawn) [Compound 293B, 2-[(4-{6-[(4-chloro-2-fluorobenzyl)oxy]pyridin-2-yl}piperidin-1-yl)methyl]-1-(2-ethoxypropyl)-1H-benzimidazole-6-carboxylic acid]	56	81	590	85
COCCn1cnnc1Cn1c(CN2CCC(c3cccc(OCc4ccc(Cl)cc4F)n3)CC2)nc2ccc(C(=O)O)cc21 [Compound 294B, 2-[(4-{6-[(4-chloro-2-fluorobenzyl)oxy]pyridin-2-yl}piperidin-1-yl)methyl]-1-{[4-(2-methoxyethyl)-4H-1,2,4-triazol-3-yl]methyl}-1H-benzimidazole-6-carboxylic acid]	72	76	1500	81
O=C(O)c1ccc2nc(CN3CCC(c4cccc(OCc5ccc(Cl)cc5F)n4)CC3)n(CCN3CCOC3=O)c2c1 [Compound 295B, 2-[(4-{6-[(4-chloro-2-fluorobenzyl)oxy]pyridin-2-yl}piperidin-1-yl)methyl]-1-[2-(2-oxo-1,3-oxazolidin-3-yl)ethyl]-1H-benzimidazole-6-carboxylic acid]	87		3100	110
Cn1nccc1Cn1c(CN2CCC(c3cccc(OCc4ccc(Cl)cc4F)n3)CC2)nc2ccc(C(=O)O)cc21 [Compound 296B, 2-[(4-{6-[(4-chloro-2-fluorobenzyl)oxy]pyridin-2-yl}piperidin-1-yl)methyl]-1-[(1-methyl-1H-pyrazol-5-yl)methyl]-1H-benzimidazole-6-carboxylic acid]	96	86	1400	94
COC(C)(C)Cn1c(CN2CCC(c3cccc(OCc4ccc(Cl)cc4F)n3)CC2)nc2ccc(C(=O)O)cc21 [Compound 297B, 2-[(4-{6-[(4-chloro-2-fluorobenzyl)oxy]pyridin-2-yl}piperidin-1-yl)methyl]-1-(2-methoxy-2-methylpropyl)-1H-benzimidazole-6-carboxylic acid]	110	70	3500	95
O=C(O)c1ccc2nc(CN3CCC(c4cccc(OCc5ccc(Cl)cc5F)n4)CC3)n(Cc3c[nH]nn3)c2c1 [Compound 298B, 2-[(4-{6-[(4-chloro-2-fluorobenzyl)oxy]pyridin-2-yl}piperidin-1-yl)methyl]-1-(1H-1,2,3-triazol-4-ylmethyl)-1H-benzimidazole-6-carboxylic acid]	110	74	2700	
O=C(O)c1ccc2nc(CN3CCC(c4cccc(OCc5ccc(Cl)cc5F)n4)CC3)n(Cc3cc[nH]n3)c2c1 [Compound 299B, 2-[(4-{6-[(4-chloro-2-fluorobenzyl)oxy]pyridin-2-yl}piperidin-1-yl)methyl]-1-(1H-pyrazol-3-ylmethyl)-1H-benzimidazole-6-carboxylic acid]	110	79	2200	
O=C(O)c1ccc2nc(CN3CCC(c4cccc(OCc5ccc(Cl)cc5F)n4)CC3)n(Cc3nnc[nH]3)c2c1 [Compound 300B, 2-[(4-{6-[(4-chloro-2-fluorobenzyl)oxy]pyridin-2-yl}piperidin-1-yl)methyl]-1-(4H-1,2,4-triazol-3-ylmethyl)-1H-benzimidazole-6-carboxylic acid]	120	93	1300	96
O=C(O)c1ccc2nc(CN3CCC(c4cccc(OCc5ccc(Cl)cc5F)n4)CC3)n(C3CCOC3)c2c1 (stereo not drawn) [Compound 301B, 2-[(4-{6-[(4-chloro-2-fluorobenzyl)oxy]pyridin-2-yl}piperidin-1-yl)methyl]-1-(tetrahydrofuran-3-yl)-1H-benzimidazole-6-carboxylic acid]	120	80	1500	92
Cc1ccn(CCn2c(CN3CCC(c4cccc(OCc5ccc(Cl)cc5F)n4)CC3)nc3ccc(C(=O)O)cc32)n1 [Compound 306B, 2-[(4-{6-[(4-chloro-2-fluorobenzyl)oxy]pyridin-2-yl}piperidin-1-yl)methyl]-1-[2-(3-methyl-1H-pyrazol-1-yl)ethyl]-1H-benzimidazole-6-carboxylic acid]	190	80	3600	93
O=C(O)c1ccc2nc(CN3CCC(c4cccc(OCc5ccc(Cl)cc5F)n4)CC3)n(CCc3c[nH]cn3)c2c1 [Compound 316B, 2-[(4-{6-[(4-chloro-2-fluorobenzyl)oxy]pyridin-2-yl}piperidin-1-yl)methyl]-1-[2-(1H-imidazol-4-yl)ethyl]-1H-benzimidazole-6-carboxylic acid]	450	71	5600	76
COC1CCN(CCn2c(CN3CCC(c4cccc(OCc5ccc(Cl)cc5F)n4)CC3)nc3ccc(C(=O)O)cc32)CC1 [Compound 331B, 2-[(4-{6-[(4-chloro-2-fluorobenzyl)oxy]pyridin-2-yl}piperidin-1-yl)methyl]-1-[2-(4-methoxypiperidin-1-yl)ethyl]-1H-benzimidazole-6-carboxylic acid]	63	78	2000	82
Cc1cc(C)n(CCn2c(CN3CCC(c4cccc(OCc5ccc(Cl)cc5F)n4)CC3)nc3ccc(C(=O)O)cc32)n1 [Compound 332B, 2-[(4-{6-[(4-chloro-2-fluorobenzyl)oxy]pyridin-2-yl}piperidin-1-yl)methyl]-1-[2-(3,5-dimethyl-1H-pyrazol-1-yl)ethyl]-1H-benzimidazole-6-carboxylic acid]	5.3	76	21	84
Cc1cc(Cn2c(CN3CCC(c4cccc(OCc5ccc(Cl)cc5F)n4)CC3)nc3ccc(C(=O)O)cc32)[nH]n1 [Compound 333B, 2-[(4-{6-[(4-chloro-2-fluorobenzyl)oxy]pyridin-2-yl}piperidin-1-yl)methyl]-1-[(3-methyl-1H-pyrazol-5-yl)methyl]-1H-benzimidazole-6-carboxylic acid]	0.7	86	10	89
Cc1n[nH]c(Cn2c(CN3CCC(c4cccc(OCc5ccc(Cl)cc5F)n4)CC3)nc3ccc(C(=O)O)cc32)n1 [Compound 334B, 2-[(4-{6-[(4-chloro-2-fluorobenzyl)oxy]pyridin-2-yl}piperidin-1-yl)methyl]-1-[(3-methyl-1H-1,2,4-triazol-5-yl)methyl]-1H-benzimidazole-6-carboxylic acid]	30	73	570	93
CC(c1cnn(C)n1)n1c(CN2CCC(c3cccc(OCc4ccc(Cl)cc4F)n3)CC2)nc2ccc(C(=O)O)cc21 (stereo not drawn) [Compound 335B, 2-[(4-{6-[(4-chloro-2-fluorobenzyl)oxy]pyridin-2-yl}piperidin-1-yl)methyl]-1-[1-(2-methyl-2H-1,2,3-triazol-4-yl)ethyl]-1H-benzimidazole-6-carboxylic acid]	5	82	41	77
Cc1ccc(Cn2c(CN3CCC(c4cccc(OCc5ccc(Cl)cc5F)n4)CC3)nc3ccc(C(=O)O)cc32)cn1 [Compound 336B, 2-[(4-{6-[(4-chloro-2-fluorobenzyl)oxy]pyridin-2-l}piperidin-1-yl)methyl]-1-[(6-methylpyridin-3-yl)methyl]-1H-benzimidazole-6-carboxylic acid]	150	68	5300	80
O=C(O)c1ccc2nc(CN3CCC(c4cccc(OCc5ccc(Cl)cc5F)n4)CC3)n(Cc3n[nH]c(C4CC4)n3)c2c1 [Compound 339B, 2-[(4-{6-[(4-chloro-2-fluorobenzyl)oxy]pyridin-2-yl}piperidin-1-yl)methyl]-1-[(5-cyclopropyl-1H-1,2,4-triazol-3-yl)methyl]-1H-benzimidazole-6-carboxylic acid]	36	71	1600	82
O=C(O)c1ccc2nc(CN3CCC(c4cccc(OCc5ccc(Cl)cc5F)n4)CC3)n(Cc3ccon3)c2c1 [Compound 344B, 2-[(4-{6-[(4-chloro-2-fluorobenzyl)oxy]pyridin-2-yl}piperidin-1-yl)methyl]-1-(1,2-oxazol-3-ylmethyl)-1H-benzimidazole-6-carboxylic acid]	37	69	1200	83
Cn1cnnc1Cn1c(CN2CCC(c3cccc(OCc4ccc(Cl)cc4F)n3)CC2)nc2ccc(C(=O)O)cc21 [Compound 345B, 2-[(4-{6-[(4-chloro-2-fluorobenzyl)oxy]pyridin-2-yl}piperidin-1-yl)methyl]-1-[(4-methyl-4H-1,2,4-triazol-3-yl)methyl]-1H-benzimidazole-6-carboxylic acid]	6.1	89	150	97

Reference: patent US20250235460A1, “COMBINATION THERAPY USING GLUCOSE-DEPENDENT INSULINOTROPIC POLYPEPTIDE RECEPTOR ANTAGONIST COMPOUNDS AND GLP-1 RECEPTOR AGONIST COMPOUNDS” (Pfizer Inc., priority 2024, published 2025)
